pIC50: −log10 of the molar value.

T1 sequence (P34947 whole entry): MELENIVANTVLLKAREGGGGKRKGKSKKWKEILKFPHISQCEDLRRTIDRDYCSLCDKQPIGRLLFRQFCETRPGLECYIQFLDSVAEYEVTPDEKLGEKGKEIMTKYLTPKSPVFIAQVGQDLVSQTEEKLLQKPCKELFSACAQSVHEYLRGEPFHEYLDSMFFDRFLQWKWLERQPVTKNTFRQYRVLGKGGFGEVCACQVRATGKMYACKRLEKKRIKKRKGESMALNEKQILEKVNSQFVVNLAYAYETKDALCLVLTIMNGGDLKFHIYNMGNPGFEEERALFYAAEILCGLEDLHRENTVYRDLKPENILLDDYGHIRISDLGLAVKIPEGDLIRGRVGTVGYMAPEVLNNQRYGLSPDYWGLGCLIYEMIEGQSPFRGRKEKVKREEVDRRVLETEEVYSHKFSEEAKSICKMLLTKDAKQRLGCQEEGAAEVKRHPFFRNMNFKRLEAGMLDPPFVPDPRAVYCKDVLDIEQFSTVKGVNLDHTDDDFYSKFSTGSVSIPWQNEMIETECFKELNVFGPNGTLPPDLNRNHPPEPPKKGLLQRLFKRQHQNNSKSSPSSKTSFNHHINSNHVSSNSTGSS

The first assay addresses T1, full length GRK5 (Homo sapiens, UniProt P34947).
T1 construct: 6/2 fold concentrated full length GRK5 (Millipore, #14-714) in reaction buffer; purchased Millipore 14-714
The assay can be described thus: GRK5 kinase activity assay, ADP Glo Kinase Assay technology (Promega). The format is biochemical. Conditions: group II; ADP Glo Kinase Assay (Table 9-B). How it is done: The maximal compound assay concentration was set to 100 μM, representing the compound assay concentration used in the primary screen.
Increasing concentrations of GRK5 are incubated together with 100 μM ATP in the absence and presence of 10 μM casein in a reaction buffer. Within this incubation non-phosphorylated casein is converted into phosphorylated casein and ATP is converted into ADP. Thereafter nonconverted ATP is digested into AMP by addition of the ADP-Glo™ Reagent. Subsequently the ADP that is produced by GRK5 activity is phosphorylated back to ATP by addition of Promega Kinase Detection Reagent. These ATP levels serve as measure for the GRK5 activity and are quantified by a luciferase/luciferin reaction.
For GRK5 kinase activity assay, the following protocol was used:
The reaction buffer used was composed of: 20 mM MES pH 6.0, 1 mM DTT, 10 mM MgCl2, 0.01% Tween20 and the reaction volume was 6 μL.
Firstly 4 μL 6/4 fold concentrated substrate and 6/4 fold concentrated ATP in 1 fold concentrated reaction buffer are added to each well of the assay plate. Subsequently 67 nL […] concentrated test compound in 100% DMSO are added to each well except to C− and C+ wells using pin tool. Then 67 nL 100% DMSO are pipetted to C− (no kinase, no compound) and C+ (no compound) wells using pin-tool and 2 μL reaction buffer are added to C− wells. […] After incubation for 120 min. at room temperature 6 μL ADP-Glo™ Reagent (ADP Glo™ Kinase Assay Kit: Promega, V9101) are added to each well to stop the kinase reaction and deplete the unconsumed ATP. After a second incubation for 40 min. at room temperature 12 μL of Kinase Detection Reagent are added to convert ADP to ATP and start luciferase/luciferin reaction for detection of ATP. […] Finally, after incubation for 40 min at room temperature the luminescence intensity was measured.
The activity of the compounds was classified according to IC50 for binding sites of Grk5 into the following ranges:
8800 Customer compounds were screened for their ability to inhibit the enzymatic activity of GRK5. Screening was performed using the ADP Glo™ Kinase Assay technology (Promega). The small molecular weight compounds were delivered at 10 mM stock concentration and were tested at a final assay concentration of 100 μM.
IC50 values were determined in triplicates at 12 concentrations with a dilution factor of three. Triplicates were measured on three different assay plates. The maximal compound assay concentration was set to 100 μM representing the compound assay concentration used in the primary screen. A larger maximal compound assay concentration could not be achieved since the maximal compound concentration on the compound plates was 10 mM (>1% DMSO concentration in the assay).
(In general: ADP-Glo first removes unused ATP, then detects ADP through luciferase.)
As usually defined, the pIC50 is the negative decadic logarithm of the IC50, by convention in mol/L. Read a high pIC50 as a low IC50. Consider `Cc1[nH]c(/C=C2\C(=O)Nc3ccc(C(=O)O)cc32)c(C)c1C(=O)NCCN1CCCC1` [II.2], for which the pIC50 was 5.70 to 6.00.
On the same count and under the same terms, in the case of `CCC(NC(=O)c1ccc2c(c1)/C(=C/c1[nH]c(C)c(CCC(=O)O)c1C)C(=O)N2)c1cccc(Cl)c1` (stereo not drawn) [II.134, (3Z)-3-(5-{5-[1-(3-chloro-phenyl)-propylcarbamoyl]-2-oxo-1,2-dihydro-indol-3-ylidenemethyl}-2,4-dimethyl-1H-pyrrol-3-yl)-propionic acid] it was 5.70 to 6.00.
With `Cc1[nH]c(/C=C2\C(=O)Nc3ccc(C(=O)O)cc32)c(C)c1C(=O)N[C@H](C)c1ccccc1` [II.137, (3Z)-3-[3,5-dimethyl-4-((1R)-1-phenyl-ethylcarbamoyl)-1H-pyrrol-2-ylmethylene]-2-oxo-2,3-dihydro-1H-indole-5-carboxylic acid], the pIC50 is 6.00 to 7.00.

The same assay, now with this note: group II; final assay concentration 5 μM.
In general, inhibition refers to the percentage by which the read-out fell short of the control. A low value points to a response near the control. In the case of `Cc1[nH]c(/C=C2\C(=O)Nc3ccc(C(=O)NCc4c(F)ccc(Cl)c4F)cc32)c(C)c1C(=O)N1CCC[C@H]1CN1CCCC1` [II.187, (3Z)-3-[3,5-dimethyl-4-((2S)-2-pyrrolidin-1-ylmethyl-pyrrolidine-1-carbonyl)-1H-pyrrol-2-ylmethylene]-2-oxo-2,3-dihydro-1H-indole-5-carboxylic acid 3-chloro-2,6-difluoro-benzylamide], the inhibition at 5 µM is 76%.
On the same count and under the same terms, in the case of `COC(=O)CC[C@H](NC(=O)c1c(C)[nH]c(/C=C2\C(=O)Nc3ccc(C(=O)N[C@@H](Cc4ccccc4)C(=O)OC)cc32)c1C)C(=O)OC` [II.167, (3Z)-2-({5-[5-((1S)-1-methoxycarbonyl-2-phenyl-ethylcarbamoyl)-2-oxo-1,2-dihydro-indol-3-ylidenemethyl]-2,4-dimethyl-1H-pyrrole-3-carbonyl}-amino)-(S)-pentanedioic acid dimethyl ester] it was 81%; in that of `COc1ccc([C@@H](C)NC(=O)c2ccc3c(c2)/C(=C/c2[nH]c(C)cc2C)C(=O)N3)cc1` [II.170, (3Z)-3-(3,5-dimethyl-1H-pyrrol-2-ylmethylene)-2-oxo-2,3-dihydro-1H-indole-5-carboxylic acid [(1R)-1-(4-methoxy-phenyl)-ethyl]-amide], 58%.
Still for that read-out and setting: in the case of `COc1ccc([C@@H](C)NC(=O)c2ccc3c(c2)/C(=C/c2c[nH]c4ccccc24)C(=O)N3)cc1` [II.193, (3Z)-3-(1H-indol-3-ylmethylene)-2-oxo-2,3-dihydro-1H-indole-5-carboxylic acid [(1R)-1-(4-methoxy-phenyl)-ethyl]-amide] it was 88%.
Same read-out and setting: in the case of `C[C@@H](NC(=O)c1ccc2c(c1)/C(=C/Nc1ccc(CN3CCCCC3)cc1)C(=O)N2)C1CCCCC1` [II.77, (3Z)-N-[(1R)-1-cyclohexylethyl]-2-oxo-3-({[4-(piperidin-1-ylmethyl)phenyl]amino}methylene)indoline-5-carboxamide] it was 98%.
Turning to `Cc1[nH]c(/C=C2\C(=O)Nc3ccc(C(=O)NCc4c(F)cccc4F)cc32)c(C)c1C(=O)NCCN1CCCCC1` [II.192, (3Z)-3-[3,5-dimethyl-4-(2-piperidin-1-yl-ethylcarbamoyl)-1H-pyrrol-2-ylmethylene]-2-oxo-2,3-dihydro-1H-indole-5-carboxylic acid 2,6-difluoro-benzylamide], the inhibition at 5 µM was 86%.
The same measure, in the same setting: in the case of `Cc1[nH]c(/C=C2\C(=O)Nc3ccc(C(=O)N[C@H](C)c4ccc(Cl)cc4)cc32)c(C)c1C(=O)N1CCCCC1` [II.66, (3Z)-N-[(1R)-1-(4-chlorophenyl)ethyl]-3-{[3,5-dimethyl-4-(piperidin-1-ylcarbonyl)-1H-pyrrol-2-yl]methylene}-2-oxoindoline-5-carboxamide] it was 76%; in that of `Cc1[nH]c(/C=C2\C(=O)Nc3ccc(C(=O)O)cc32)c(C)c1C(=O)NC(C)C(=O)O` (stereo in doubt) [II.148, (3Z)-3-[4-(1-carboxy-(1R)-ethylcarbamoyl)-3,5-dimethyl-1H-pyrrol-2-ylmethylene]-2-oxo-2,3-dihydro-1H-indole-5-carboxylic acid], 48%; in that of `CC[C@@H](NC(=O)c1ccc2c(c1)/C(=C/c1[nH]c(C)c(C(=O)N3CCN(C4CCN(C)CC4)CC3)c1C)C(=O)N2)c1ccccc1` [II.181, (3Z)-3-{3,5-dimethyl-4-[4-(1-methyl-piperidin-4-yl)-piperazine-1-carbonyyl]-1H-pyrrol-2-ylmethylene}-2-oxo-2,3-dihydro-1H-indole-5-carboxylic acid ((1R)-1-phenyl-propyl)-amide], 49%.
`Cc1[nH]c(/C=C2\C(=O)Nc3ccc(C(=O)NCc4c(F)cccc4F)cc32)c(C)c1C(=O)N1CCC[C@@H]1CN1CCCC1` [II.191, (3Z)-3-[3,5-dimethyl-4-((2R)-2-pyrrolidin-1-ylmethyl-pyrrolidine-1-carbonyl)-1H-pyrrol-2-ylmethylene]-2-oxo-2,3-dihydro-1H-indole-5-carboxylic acid 2,6-difluoro-benzylamide] returned an inhibition at 5 µM of 66%.
Regarding `Cc1[nH]c(/C=C2\C(=O)Nc3ccc(C(=O)O)cc32)c(C)c1C(=O)NC(Cc1ccccc1)C(=O)O` (stereo in doubt) [II.153, (3Z)-3-[4-((1R)-1-carboxy-2-phenyl-ethylcarbamoyl)-3,5-dimethyl-1H-pyrrol-2-ylmethylene]-2-oxo-2,3-dihydro-1H-indole-5-carboxylic acid], the inhibition at 5 µM came to 56%.
`CCOC(=O)c1c(C)[nH]c(/C=C2\C(=O)Nc3ccc(C(=O)N[C@@H](Cc4ccccc4)C(=O)OC)cc32)c1C` [II.157, (3Z)-5-[5-((1S)-1-methoxycarbonyl-2-phenyl-ethylcarbamoyl)-2-oxo-1,2-dihydro-indol-3-ylidenemethyl]-2,4-dimethyl-1H-pyrrole-3-carboxylic II. acid ester ethyl] came in with an inhibition at 5 µM of 74%.
Consider `Cc1[nH]c(/C=C2\C(=O)Nc3ccc(C(=O)NCc4c(F)cccc4F)cc32)c(C)c1C(=O)N1CCC[C@H]1CN1CCCC1` [II.189, (3Z)-3-[3,5-dimethyl-4-((2S)-2-pyrrolidin-1-ylmethyl-pyrrolidine-1-carbonyl)-1H-pyrrol-2-ylmethylene]-2-oxo-2,3-dihydro-1H-indole-5-carboxylic acid 2,6-difluoro-benzylamide], for which the inhibition at 5 µM was found to be 98%.
Consider `Cc1[nH]c(/C=C2\C(=O)Nc3ccc(C(=O)NCc4c(F)cccc4F)cc32)c(C)c1C(=O)N1CC[C@H](N(C)C)C1` [II.190, (3Z)-3-[4-((3S)-3-dimethylamino-pyrrolidine-1-carbonyl)-3,5-dimethyl-1H-pyrrol-2-ylmethylene]-2-oxo-2,3-dihydro-1H-indole-5-carboxylic acid 2,6-difluoro-benzylamide], for which the inhibition at 5 µM came to 61%.
Still for that read-out and setting: in the case of `CC[C@H](NC(=O)c1ccc2c(c1)/C(=C/c1ccc(C(=O)N3CCN(C)CC3)cc1)C(=O)N2)c1ccccc1` [II.58, (3Z)-3-{4-[(4-methylpiperazin-1-yl)carbonyl]benzylidene}-2-oxo-N-[(1S)-1-phenylpropyl]indoline-5-carboxamide] it was 96%.

These data come from patent US9458463B2, “Method for treatment of diabetes by a small molecule inhibitor for GRK5” (MAX-PLANCK-GESELLSCHAFT ZUR FÖRDERUNG DER WISSENSCHAFTEN …, priority 2010, dated 2016).
